Experimental data taken from patent US20100292200A1, “Methods for Modulating Apoptosis in Platelets” (The Walter and Eliza Hall Institute of Medical Research, priority 2006, published 2010).

Key:
[1] = tested on: primary MEFs from wild type, Bcl-x^Plt20/Plt20 or Bcl-x^Plt16/Plt16 mice; assay: Viability of primary MEFs (PI exclusion) after cell death induction; assay type: cell-based, mouse
From the text: FIG. 3 provides a representation of data showing that the Bcl-x^Plt20 and Bcl-x^Plt16 mutations destabilize the Bcl-xL protein (A) Location of the Plt20 and Plt16 mutations on Bcl-xL. The two mutations (in blue) are mapped on the 3-dimensional structure of mouse Bcl-xL (light gray) in complex with a Bim BH3 peptide (red) (1PQ1) (Liu et al. Immunity, 19:341-352, 2003). Y15 (Plt20) is partially solvent exposed, while I182 (Plt16) is completely buried, neither contributing to the BH3 binding groove of Bcl-xL. The structural depiction was prepared using PyMOL (DeLano, W. L. 2002 The PyMOL Molecular Graphics System; http://www.pymol.org). (B) The mutant proteins encoded by the Plt20 and Plt16 alleles of Bcl-x can still bind Bax and Bak. […] Data shown is representative of at least 2 cell lines of each genotype analyzed. […] The viability (determined by PI exclusion) of representative primary MEFs derived from wild type, Bcl-x^Plt20/Plt20 or Bcl-x^Plt16/Plt16 mice after exposure to 50 μg/mL cycloheximide for 0-30 h. […]
FIG. 8 is a graphical representation of data showing the sensitivity of cell lines derived from Bcl-x mutant mice to apoptosis. […] Viability was determined by PI uptake; data represent means±SD of representative cell lines. \-<1% viability. […]

mouse platelets = assay: Ex vivo platelet assays, mouse platelets in culture (platelet counts, caspase immunoblotting); assay type: cell-based; conditions: qVD.OPh 50 μM with ABT-737 1 μM
Method: (A) Expression of Bcl-2 family proteins in platelets. […] (C) ABT-737 triggers caspase activation in platelets. […] (F) Absence of Bak protects platelets against ABT-737.
Cell death was induced with ABT-737 (up to 5 μM, Abbott Laboratories (Oltersdorf et al., 2005 (supra)), etoposide (up to 100 μM, Pharmacia) or staurosporine (10 μM, Sigma); 50 μM qVD.OPh (Enzyme Systems) was also added in some experiments. Cell viability was determined by flow cytometry for cells that exclude propidium iodide or manual counting using a hemacytometer.
Other antibodies for immunoblotting were mouse monoclonal anti-Bcl-xL (2H12; BD), anti-Bcl-2 (clone 7; BD), anti-human Bcl-2 (Bcl-2-100), anti-actin (AC40; Sigma), anti-Bax (2D2 and 5B7; Sigma), anti-Mcl-1 (clone 22: BD); rat monoclonal anti-Mcl-1 (14C11; D Huang, unpublished), rabbit polyclonal anti-Bak (B5897: Sigma), anti-Mcl-1 (Rockland), anti-caspase-3 (585; gift of Y. Lazebnik), anti-cleaved p17 fragment of caspase-3 (AB3623; Chemicon), anti-gelsolin (gift of D Kwiatkowski) (Kothakota et al., Science, 278:294-298, 1997); hamster monoclonal anti-mouse Bcl-2 (3F11; BD). Secondary antibodies included HRP-conjugated anti-rat or anti-hamster IgG (SouthernBiotech), anti-mouse or anti-rabbit IgG (Chemicon), and anti-mouse IgG Fcγ chain specific antibody (Jackson ImmunoResearch). The proteins were detected using Enhanced ChemiLuminescence (ECL; GE Healthcare).
Platelets were counted manually in triplicate using a hemacytometer.

Mcl-1 null MEF cells = assay: Assay of Mcl-1 null MEF cells (rescue from ABT-737-induced killing, CellTitre-Blue viability); assay type: cell-based, mouse; conditions: positive control, 25 μM final; ABT-737 20 nM final
Method: In summary, cells are split on day one in order to have them at a confluency of 60-80% on day two. On day two, the cells are seeded out into assay plates at a density that will ensure they are not confluent by day four of the assay. The assay plates are incubated at room temperature for 20-60 minutes before being transferred to 37° C. so that edge effects are minimized. For the same reason, assay plates are never stacked on top of each other in the incubator. On day three the cells are treated first with either Q-VD or with WEHI library compound. The cells are incubated for a 2 hour period in the presence of the library compounds and are then treated with ABT-737. […] After four hours the level of resorufin is measured.
The protocol for day one was repeated up to the point where the cells were pelleted and the supernatant aspirated off. […] The cells were vortexed and then counted using a haemocytometer. The dilution necessary to achieve a density of 2×10^4 cells ml^−1 (1000 cells per well per 50 μl media) in the required volume was calculated and the dilution performed in 1% FCS FMA. […]
CellTitre-Blue™ was warmed to 37° C. and 10 μl was then added to each well of the assay plates using the Multidrop. The plates were returned to 37° C. for 4 hours before being loaded into the EnVision plate reader. […]

With C[C@@H]1C[C@@H]([C@H](O)CC2CC(=O)NC(=O)C2)C(=O)[C@@H](C)C1 [cycloheximide] the “viability of Bcl-x^Plt20 or Bcl-x^Plt16 MEFs after protein synthesis inhibition” value ([1]; 50 μg/mL cycloheximide for 0-30 h, PI exclusion) was “susceptible”.
For CC(C)[C@H](NC(=O)c1ccc2ccccc2n1)C(=O)N[C@@H](CC(=O)O)C(=O)COc1c(F)cccc1F [qVD.OPh], the “effect of qVD.OPh on ABT-737-induced caspase-3 activation and gelsolin cleavage” value (mouse platelets) was “partially blocked”, the “effect of qVD.OPh on the cytotoxic effect of ABT-737 on mouse platelets in culture” value (mouse platelets; counted after 1 h) was “partially ameliorated” and the “rescue of Mcl-1^(-/-) cells from ABT-737-induced apoptosis” value (Mcl-1 null MEF cells) was “can be rescued”.
CN[C@@H]1C[C@H]2O[C@@](C)([C@@H]1OC)n1c3ccccc3c3c4c(c5c6ccccc6n2c5c31)C(=O)NC4 [staurosporine] was tested, and the “sensitivity of wild-type, Bcl-x^Plt20/Plt20 or Bcl-x^Plt16/Plt16 MEFs to staurosporine” value ([1]; staurosporine 10 μM, PI uptake) was “equally sensitive”.
